Results as given in paper PMC3162038 (Journal of the American Chemical Society, 2011).

Legend:
Assay type in all cases: biochemical
VldH = biological target: T1, VldH (Streptomyces hygroscopicus, UniProt Q15JF8); assay: ESI-MS of product; settings: 5 mM substrate, 10 mM MgCl2, 50 mM Tris-HCl pH 7.5, 1.5 h
T1 sequence (Q15JF8 1-213): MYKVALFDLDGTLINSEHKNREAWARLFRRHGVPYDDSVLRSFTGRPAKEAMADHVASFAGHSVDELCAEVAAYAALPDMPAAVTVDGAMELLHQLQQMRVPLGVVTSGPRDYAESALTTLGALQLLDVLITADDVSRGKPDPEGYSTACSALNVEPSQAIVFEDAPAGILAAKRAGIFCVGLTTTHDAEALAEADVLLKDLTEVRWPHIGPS

OtsA = biological target: T2, OtsA (Escherichia coli, UniProt P31677); assay: ESI-MS of product; settings: UDP-glucose and glucose 6-phosphate as substrates; 5 mM MgCl2, 50 mM Tris-HCl pH 7.5
T2 sequence (P31677 1-474): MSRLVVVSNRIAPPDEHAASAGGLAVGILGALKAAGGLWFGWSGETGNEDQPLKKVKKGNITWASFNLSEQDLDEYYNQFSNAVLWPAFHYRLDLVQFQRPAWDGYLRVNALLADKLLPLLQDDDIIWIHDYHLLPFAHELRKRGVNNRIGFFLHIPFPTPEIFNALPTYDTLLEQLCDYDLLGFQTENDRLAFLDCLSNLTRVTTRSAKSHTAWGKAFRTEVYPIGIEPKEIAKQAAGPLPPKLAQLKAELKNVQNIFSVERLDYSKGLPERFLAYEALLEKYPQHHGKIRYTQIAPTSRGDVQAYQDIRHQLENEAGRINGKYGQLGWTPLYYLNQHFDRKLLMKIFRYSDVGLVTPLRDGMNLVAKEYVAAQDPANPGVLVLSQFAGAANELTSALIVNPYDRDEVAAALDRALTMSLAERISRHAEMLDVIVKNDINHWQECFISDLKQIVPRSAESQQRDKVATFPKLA

VldB = biological target: T3, VldB (Streptomyces hygroscopicus, UniProt Q15JG4); assay: HPLC and ESI-MS of product; settings: valienol 1-phosphate as co-substrate; 1 mM Mg2+
T3 sequence (Q15JG4 1-373): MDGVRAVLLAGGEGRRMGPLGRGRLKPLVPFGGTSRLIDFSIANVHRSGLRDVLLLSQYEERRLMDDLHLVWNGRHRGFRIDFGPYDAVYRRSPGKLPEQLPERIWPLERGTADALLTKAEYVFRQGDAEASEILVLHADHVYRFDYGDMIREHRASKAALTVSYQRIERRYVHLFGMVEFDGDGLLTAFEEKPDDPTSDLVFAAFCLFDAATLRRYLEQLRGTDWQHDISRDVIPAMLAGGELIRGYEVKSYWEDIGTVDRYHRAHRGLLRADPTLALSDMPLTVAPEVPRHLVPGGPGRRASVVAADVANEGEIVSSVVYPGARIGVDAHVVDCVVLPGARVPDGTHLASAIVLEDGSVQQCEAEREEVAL

O=P(O)(O)OC[C@H]1O[C@H](O[C@H]2O[C@H](CO)[C@@H](O)[C@H](O)[C@H]2O)[C@H](O)[C@@H](O)[C@@H]1O [trehalose 6-phosphate]
ESI-MS of product (VldH): VldH was able to catalyze dephosphorylation of trehalose 6-phosphate to give trehalose | ESI-MS of product (OtsA): the recombinant OtsA can catalyze the formation of trehalose 6-phosphate

Nc1nc2c(ncn2[C@@H]2O[C@H](COP(=O)(O)OP(=O)(O)OP(=O)(O)O)[C@@H](O)[C@H]2O)c(=O)[nH]1 [GTP]
HPLC and ESI-MS of product (VldB): effectively catalyzes the conversion of valienol 1-phosphate to GDP-valienol
